A short description of data set [1]: (§1) Pharmacokinetic parameters for Clarithromycin evaluated after single oral administration of 1000 or 2 x 500 mg Clarithromycin extended-release tablets to 34 adult volunteers under fasting and feeding conditions. The format is ADME, organism-based. Also noted: dose 1000 mg, dose 2 x 500, route oral. As to conditions: human, in vivo, dosed compound id 21, dosed compound name CLARITHROMYCIN, gender male and female, regimen Single dose, tissue Plasma.

The subject of another data set is Homo sapiens. Described as §1. The format is ADME, organism-based. Also noted: dose 1000 mg, dose 2 x 500, route oral. As to conditions: in vivo, po, dosed compound id 21, dosed compound name CLARITHROMYCIN, gender male and female, regimen Single dose, tissue Plasma.

The results in this text go back to ChEMBL document CHEMBL3832033, “DailyMed|setid=f21494ed-c5e8-4ddf-b140-ecd68c5c312b | CLARITHROMYCIN EXTENDED RELEASE - clarithromycin tablet, film coated, extended release|Ranbaxy Pharmaceuticals Inc”.

SMILES strings stand for the structures. Values joined by “and” are separate entries in the source; they are usually repeats but may differ in a detail not shown here. Equal entries are not always repeated.

For the compound `CC[C@H]1OC(=O)[C@H](C)[C@@H](O[C@H]2C[C@@](C)(OC)[C@@H](O)[C@H](C)O2)[C@H](C)[C@@H](O[C@@H]2O[C@H](C)C[C@H](N(C)C)[C@H]2O)[C@](C)(OC)C[C@@H](C)C(=O)[C@H](C)[C@@H](O)[C@]1(C)O` [CLARITHROMYCIN], in data set [1] (po, 1000 mg, dietary status Fasting, read-out: AUC(0-t)), the AUC (usually concentration integrated over time) was determined as 36600 ng·h/mL. Further, the Cmax – broadly, the maximum level reached in the sampled fluid or tissue – in data set [1] (po, 1000 mg, dietary status Fed) came to 3960 ng/mL; in the data set on Homo sapiens (dietary status Fed), 3478.3286 ng/mL. Moreover, the Tmax (as a rule, the time at which the peak concentration occurs) in data set [1] (dietary status Fasting, dose 1000 mg, route oral) turned out to be 11 h; in the data set on Homo sapiens (dietary status Fasting, dose 2 x 500 mg), 9.588 h; with Homo sapiens (dietary status Fed, dose 1000 mg), 6.118 h; in the data set with Homo sapiens (dietary status Fed, dose 2 x 500 mg), 6.235 h. Besides, the AUC(0-t) (commonly the area under the concentration-time curve up to a stated or last time point) is 37615.9151 ng·h/mL in the data set on Homo sapiens (dietary status Fasting); 58485.5053 ng·h/mL and 60796.1185 ng·h/mL in the data set with Homo sapiens (dietary status Fed).
